Where two headings read alike, the source gives them in different places.
Experiments:
Format in all cases: cell-based
K-562 = test: SRB colorimetric cell growth inhibition assay, K-562; details: Homo sapiens, K562, K-562; for GI50: GI=growth inhibition, read-out: GI50 K-562; for CC50: cell killing (cytotoxic effect), read-out: LC50 K-562; for IC (TGI): total growth inhibition (cytostatic effect), read-out: TGI K-562
How it was run: (§1)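 Human tumour cells continuously exposed to compound in 96-well culture; growth and viability quantified colorimetrically by sulforhodamine B staining. Mean ± SD from triplicate wells; GI (growth inhibition), TGI (total growth inhibition, cytostatic) and LC (cell killing, cytotoxic) parameters derived.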

A-549 = test: SRB colorimetric cell growth inhibition assay, A-549; details: for CC50: cell killing (cytotoxic effect), read-out: LC50 A-549; for GI50: GI=growth inhibition, read-out: GI50 A-549
How it was run: as §1

SK-MEL-28 = test: SRB colorimetric cell growth inhibition assay, SK-MEL-28; details: for GI50: GI=growth inhibition, read-out: GI50 MEL-28; for CC50: cell killing (cytotoxic effect), read-out: LC50 MEL-28
How it was run: as §1

HT-29 = test: SRB colorimetric cell growth inhibition assay, HT-29; details: for GI50: GI=growth inhibition, read-out: GI50 HT-29; for CC50: cell killing (cytotoxic effect), read-out: LC50 HT-29
How it was run: as §1

LoVo = test: SRB colorimetric cell growth inhibition assay, LoVo; details: for GI50: GI=growth inhibition, read-out: GI50 LOVO; for IC (TGI): total growth inhibition (cytostatic effect), read-out: TGI LOVO; for CC50: cell killing (cytotoxic effect), read-out: LC50 LOVO
How it was run: as §1

LoVo-Dox = test: SRB colorimetric cell growth inhibition assay, LoVo-Dox (MDR); details: Homo sapiens, LOVO-DOX; for GI50: GI=growth inhibition, read-out: GI50 LOVO-DOX; for CC50: cell killing (cytotoxic effect), read-out: LC50 LOVO-DOX; for IC (TGI): total growth inhibition (cytostatic effect), read-out: TGI LOVO-DOX
How it was run: as §1

DU-145 = test: SRB colorimetric cell growth inhibition assay, DU-145; details: for CC50: cell killing (cytotoxic effect), read-out: LC50 DU-145; for GI50: GI=growth inhibition, read-out: GI50 DU-145; for IC (TGI): total growth inhibition (cytostatic effect), read-out: TGI DU-145
How it was run: as §1

LNCaP = test: SRB colorimetric cell growth inhibition assay, LNCaP; details: Homo sapiens, LNCaP, LN-caP; for GI50: GI=growth inhibition, read-out: GI50 LN-caP; for CC50: cell killing (cytotoxic effect), read-out: LC50 LN-caP; for IC (TGI): total growth inhibition (cytostatic effect), read-out: TGI LN-caP
How it was run: as §1

SK-BR-3 = test: SRB colorimetric cell growth inhibition assay, SK-BR-3; details: for CC50: cell killing (cytotoxic effect), read-out: LC50 SK-BR-3; for GI50: GI=growth inhibition, read-out: GI50 SK-BR-3
How it was run: as §1

IGROV = test: SRB colorimetric cell growth inhibition assay, IGROV; details: Homo sapiens, IGROV; for GI50: GI=growth inhibition, read-out: GI50 IGROV; for CC50: cell killing (cytotoxic effect), read-out: LC50 IGROV; for IC (TGI): total growth inhibition (cytostatic effect), read-out: TGI IGROV
How it was run: as §1

IGROV-ET = test: SRB colorimetric cell growth inhibition assay, IGROV-ET (ET-743 resistant); details: Homo sapiens, IGROV-ET; for GI50: GI=growth inhibition, read-out: GI50 IGROV-ET; for CC50: cell killing (cytotoxic effect), read-out: LC50 IGROV-ET; for IC (TGI): total growth inhibition (cytostatic effect), read-out: TGI IGROV-ET
How it was run: as §1

PANC-1 = test: SRB colorimetric cell growth inhibition assay, PANC-1; details: for CC50: cell killing (cytotoxic effect), read-out: LC50 PANC-1; for GI50: GI=growth inhibition, read-out: GI50 PANC-1
How it was run: as §1

SKOV-3 = test: SRB colorimetric cell growth inhibition assay, SKOV-3; details: Homo sapiens; for GI50: SK-OV-3, SKOV-3, GI=growth inhibition, read-out: GI50 SKOV-3; for LC50 (concentration causing 50% net cell killing) / IC (TGI): SK-OV-3, SKOV-3; for LC50 (concentration causing 50% net cell killing): cell killing (cytotoxic effect), read-out: LC50 SKOV-3; for IC (TGI): total growth inhibition (cytostatic effect), read-out: TGI SKOV-3
How it was run: (§2)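 Sulforhodamine B colorimetric assay of cell growth and viability, mean ± SD of triplicate wells. Parameters derived: GI (growth inhibition), TGI (total growth inhibition, cytostatic) and LC (cell killing, cytotoxic).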

[1] = SRB colorimetric cell growth inhibition assay, H-MEC-1; details: human, H-MEC-1 cells; H-MEC-1; cell killing (cytotoxic effect); read-out: LC50 H-MEC-1
How it was run: as §2

H-MEC-1 = test: as above; details: Homo sapiens, HMEC-1, H-MEC-1; for GI50: GI=growth inhibition, read-out: GI50 H-MEC-1; for IC (TGI): total growth inhibition (cytostatic effect), read-out: TGI H-MEC-1
How it was run: as §2

[2] = Homo sapiens, SK-MEL-28, MEL-28

## COc1cc2ccn3c(c(-c4ccc(OC(=O)[C@@H](N)C(C)C)c(OC)c4)c4c5cc(OC)c(OC(=O)[C@@H](N)C(C)C)cc5oc(=O)c43)c2cc1OC [Compound 19]
K-562
  GI50: 1840 nM
  CC50: 11.6 µM
  IC (TGI): 4.62 µM
A-549; A-549
  CC50: 6.32 µM
A-549; A-549, total growth inhibition (cytostatic effect)
  TGI A-549: 2.13E−06 Molar
A-549; Homo sapiens, A549, A-549
  GI50: 605 nM
SK-MEL-28; MEL-28
  GI50: 273 nM
  CC50: 4990 nM
SK-MEL-28; MEL-28, total growth inhibition (cytostatic effect)
  TGI MEL-28: 1.53E−06 Molar
HT-29; HT-29
  GI50: 109 nM
HT-29; HT-29, total growth inhibition (cytostatic effect)
  TGI HT-29: 2.10E−06 Molar
HT-29; Homo sapiens, HT-29, HT-29
  CC50: 7.29 µM
LoVo; Homo sapiens, LoVo
  GI50: 722 nM
  IC (TGI): 2.33 µM
LoVo; LOVO
  CC50: 6.6 µM
LoVo-Dox
  GI50: 874 nM
  CC50: 8.03 µM
  IC (TGI): 2.72 µM
DU-145; DU-145
  CC50: 6.85 µM
DU-145; Homo sapiens, DU-145, DU-145
  GI50: 532 nM
  IC (TGI): 2.16 µM
LNCaP
  GI50: 94.1 nM
  CC50: 5.37 µM
  IC (TGI): 1.41 µM
SK-BR-3; Homo sapiens, SK-BR-3, SK-BR-3
  CC50: 14 µM
SK-BR-3; SK-BR-3
  GI50: 165 nM
SK-BR-3; SK-BR-3, total growth inhibition (cytostatic effect)
  TGI SK-BR-3: 2.28E−06 Molar
IGROV
  GI50: 406 nM
  CC50: 9.34 µM
  IC (TGI): 2.51 µM
IGROV-ET
  GI50: 761 nM
  CC50: 11.3 µM
  IC (TGI): 2.54 µM
PANC-1; Homo sapiens, PANC-1, PANC-1
  CC50: 9.5 µM
PANC-1; PANC-1
  GI50: 245 nM
PANC-1; PANC-1, total growth inhibition (cytostatic effect)
  TGI PANC-1: 2.42E−06 Molar
SKOV-3
  GI50: 758 nM
  LC50 (concentration causing 50% net cell killing): 6.57 µM
  IC (TGI): 2.31 µM
[1]
  LC50 (concentration giving 50% net cell killing): 7.16 µM
H-MEC-1
  GI50: 807 nM
  IC (TGI): 2.42 µM

## COc1cc2c(cc1OC)-c1c(-c3ccc(OC(=O)[C@H](C)NC(=O)OC(C)(C)C)c(OC)c3)c3c4cc(OC)c(OC(=O)[C@H](C)NC(=O)OC(C)(C)C)cc4oc(=O)c3n1CC2 [Compound 21]
K-562
  GI50: 286 nM
  CC50: 2.39 µM
  IC (TGI): 0.582 µM
A-549; Homo sapiens, A549, A-549
  GI50: 1390 nM
  CC50: 11.7 µM
A-549; Homo sapiens, A549, A-549, total growth inhibition (cytostatic effect), read-out: TGI A-549
  IC (TGI): 4.62 µM
SK-MEL-28; [2]
  GI50: 287 nM
  CC50: 860 nM
SK-MEL-28; Homo sapiens, SK-MEL-28, MEL-28, total growth inhibition (cytostatic effect), read-out: TGI MEL-28
  IC (TGI): 0.497 µM
HT-29; Homo sapiens, HT-29, HT-29
  GI50: 512 nM
  CC50: 11.7 µM
HT-29; Homo sapiens, HT-29, HT-29, total growth inhibition (cytostatic effect), read-out: TGI HT-29
  IC (TGI): 11.7 µM
LoVo; Homo sapiens, LoVo
  GI50: 1950 nM
  CC50: 11.7 µM
  IC (TGI): 4.97 µM
LoVo-Dox
  GI50: 4970 nM
  CC50: 11.7 µM
  IC (TGI): 11.7 µM
DU-145; Homo sapiens, DU-145, DU-145
  GI50: 353 nM
  CC50: 11.7 µM
  IC (TGI): 0.703 µM
LNCaP
  GI50: 190 nM
  CC50: 0.775 µM
  IC (TGI): 0.383 µM
SK-BR-3; Homo sapiens, SK-BR-3, SK-BR-3
  GI50: 342 nM
  CC50: 11.7 µM
SK-BR-3; Homo sapiens, SK-BR-3, SK-BR-3, total growth inhibition (cytostatic effect), read-out: TGI SK-BR-3
  IC (TGI): 0.599 µM
IGROV
  GI50: 315 nM
  CC50: 9.02 µM
  IC (TGI): 0.664 µM
IGROV-ET
  GI50: 901 nM
  CC50: 11.7 µM
  IC (TGI): 5.18 µM
PANC-1; Homo sapiens, PANC-1, PANC-1
  GI50: 514 nM
  CC50: 11.7 µM
PANC-1; Homo sapiens, PANC-1, PANC-1, total growth inhibition (cytostatic effect), read-out: TGI PANC-1
  IC (TGI): 1.81 µM
SKOV-3
  GI50: 849 nM
  LC50 (concentration causing 50% net cell killing): 11.7 µM
  IC (TGI): 11.7 µM
[1]
  LC50 (concentration giving 50% net cell killing): 0.922 µM
H-MEC-1
  GI50: 281 nM
  IC (TGI): 0.509 µM

— patent publication US7396837B2, “Antitumoral analogs of lamellarins” (Pharma Mar, S.A.U., priority 2002, dated 2008)
